Measurements published in patent US12077503B2, “Substituted cyclic amides and their use as herbicides” (FMC CORPORATION, priority 2015, dated 2024).

Legend:
Assay type in all cases: in vivo
[1] = system: Kochia (Kochia scoparia); assay: Test A preemergence; settings: for Kochia plant response rating (0 to 100 scale, 0 is no effect, 100 is complete control): 125 g ai/ha, Preemergence, visual injury rating after approximately 10 d
Method in brief: (§1)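 Visual injury scores from 0, no effect, to 100, complete control, were assigned versus untreated controls roughly 10 d after treatment in the greenhouse. Test chemicals, formulated with surfactant in a non-phytotoxic solvent, were applied to planted seeds as a preemergence soil spray or postemergence to one- to two-leaf plants 2 to 10 cm tall, in loam–sand soil.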

[2] = system: barnyardgrass (Echinochloa crus-galli); assay: Test A preemergence; settings: for Barnyardgrass plant response rating (0 to 100 scale, 0 is no effect, 100 is complete control): 125 g ai/ha, Preemergence, visual injury rating after approximately 10 d
Method in brief: as §1

[3] = system: giant foxtail (Setaria faberii); assay: Test A preemergence
Method in brief: as §1

[4] = system: pigweed (Amaranthus retroflexus); assay: Test A preemergence; settings: for Pigweed plant response rating (0 to 100 scale, 0 is no effect, 100 is complete control): 125 g ai/ha, Preemergence, visual injury rating after approximately 10 d
[5] = system: ragweed (common ragweed, Ambrosia elatior); assay: Test A preemergence; settings: for Ragweed plant response rating (0 to 100 scale, 0 is no effect, 100 is complete control): 125 g ai/ha, Preemergence, visual injury rating after approximately 10 d; for Ragweed plant response rating: 500 g ai/ha, preemergence, visual injury rating about 10 d after treatment, 0 to 100 scale (0 no effect, 100 complete control)
Method in brief: as §1

[6] = system: ryegrass, Italian (Italian ryegrass, Lolium multiflorum); assay: Test A preemergence
Method in brief: as §1

[7] = system: Galium (catchweed bedstraw, Galium aparine); assay: Test A postemergence; settings: 125 g ai/ha, Postemergence, visual injury after approximately 10 d, 0 to 100 scale where 0 is no effect and 100 is complete control
Method in brief: as §1

[8] = system: Kochia (Kochia scoparia); assay: Test A postemergence; settings: 125 g ai/ha, Postemergence; visual injury after approximately 10 d; 0 to 100 scale where 0 is no effect and 100 is complete control
Method in brief: as §1

[9] = system: barnyardgrass (Echinochloa crus-galli); assay: Test A postemergence; settings: 125 g ai/ha, Postemergence, visual injury after approximately 10 d, 0 to 100 scale where 0 is no effect and 100 is complete control
Method in brief: as §1

[10] = system: blackgrass (Alopecurus myosuroides); assay: Test A postemergence; settings: 125 g ai/ha, Postemergence; visual injury after approximately 10 d; 0 to 100 scale where 0 is no effect and 100 is complete control
Method in brief: as §1

[11] = system: corn (Zea mays); assay: Test A postemergence; settings: 125 g ai/ha, Postemergence; visual injury after approximately 10 d; 0 to 100 scale where 0 is no effect and 100 is complete control
Method in brief: as §1

[12] = system: giant foxtail (Setaria faberii); assay: Test A postemergence; settings: 125 g ai/ha, Postemergence, visual injury after approximately 10 d, 0 to 100 scale where 0 is no effect and 100 is complete control
Method in brief: as §1

[13] = system: pigweed (Amaranthus retroflexus); assay: Test A postemergence; settings: 125 g ai/ha, Postemergence, visual injury after approximately 10 d, 0 to 100 scale where 0 is no effect and 100 is complete control
Method in brief: as §1

[14] = system: ragweed (common ragweed, Ambrosia elatior); assay: Test A postemergence; settings: 125 g ai/ha, Postemergence, visual injury after approximately 10 d, 0 to 100 scale where 0 is no effect and 100 is complete control
Method in brief: as §1

[15] = system: ryegrass, Italian (Italian ryegrass, Lolium multiflorum); assay: Test A postemergence; settings: 125 g ai/ha, Postemergence; visual injury after approximately 10 d; 0 to 100 scale where 0 is no effect and 100 is complete control
Method in brief: as §1

[16] = system: wheat (Triticum aestivum); assay: Test A postemergence; settings: 125 g ai/ha, Postemergence; visual injury after approximately 10 d; 0 to 100 scale where 0 is no effect and 100 is complete control
Method in brief: as §1

[17] = system: barnyardgrass (Echinochloa crus-galli); assay: Test B flooded paddy test; settings: Flood, 250 g ai/ha, scale of 0 to 100 where 0 is no effect and 100 is complete control
Method in brief: (§2)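 Rating scale 0–100 (visual, vs untreated controls) after a 13–15 d greenhouse period; application to the flood layer, 3 cm above soil and maintained; plants at 2-leaf stage when treated.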

[18] = system: ducksalad (Heteranthera limosa); assay: Test B flooded paddy test; settings: Flood, 250 g ai/ha; scale of 0 to 100 where 0 is no effect and 100 is complete control
Method in brief: as §2

[19] = system: rice (Oryra sativa); assay: Test B flooded paddy test; settings: Flood, 250 g ai/ha, scale of 0 to 100 where 0 is no effect and 100 is complete control
Method in brief: as §2

[20] = system: sedge, umbrella (small-flower umbrella sedge, Cyperus difformis); assay: Test B flooded paddy test; settings: 250 g ai/ha, Flood, 0 to 100 scale where 0 is no effect and 100 is complete control
Method in brief: as §2

[21] = 500 g ai/ha, preemergence, visual injury rating about 10 d after treatment, 0 to 100 scale (0 no effect, 100 complete control)
[22] = 125 g ai/ha, Preemergence, visual injury rating after approximately 10 d

Cc1ccc([C@H]2CN(C)C(=O)[C@@H]2C(=O)Nc2ccccc2[S+](C)[O-])cc1F (single isomer, unassigned) [Compound 987]
Kochia plant response rating (0 to 100 scale, 0 is no effect, 100 is complete control) [1]: 0 | pest or weed control at 500 g/ha ([1]; Bassia scoparia, pre-emergence, 240 h, 500 g ai/ha, preemergence, visual injury rating about 10 d after treatment, 0 to 100 scale (0 no effect, 100 complete control), read-out: Kochia plant response rating): 60% | Barnyardgrass plant response rating (0 to 100 scale, 0 is no effect, 100 is complete control) [2]: 60 | pest or weed control at 500 g/ha ([2]; Echinochloa crus-galli, pre-emergence, 240 h, 500 g ai/ha, preemergence, visual injury rating about 10 d after treatment, 0 to 100 scale (0 no effect, 100 complete control), read-out: Barnyardgrass plant response rating): 90% | pest or weed control at 125 g/ha ([3]; Setaria faberi, pre-emergence, 240 h, 125 g ai/ha, Preemergence, visual injury rating after approximately 10 d, read-out: Foxtail, Giant plant response rating (0 to 100 scale, 0 is no effect, 100 is complete control)): 90% | pest or weed control at 500 g/ha ([3]; Setaria faberi, pre-emergence, 240 h, 500 g ai/ha, preemergence, visual injury rating about 10 d after treatment, 0 to 100 scale (0 no effect, 100 complete control), read-out: Foxtail, Giant plant response rating): 90% | Pigweed plant response rating (0 to 100 scale, 0 is no effect, 100 is complete control) [4]: 0 | pest or weed control at 500 g/ha ([4]; Amaranthus retroflexus, pre-emergence, 240 h, 500 g ai/ha, preemergence, visual injury rating about 10 d after treatment, 0 to 100 scale (0 no effect, 100 complete control), read-out: Pigweed plant response rating): 20% | Ragweed plant response rating (0 to 100 scale, 0 is no effect, 100 is complete control) [5]: 0 | Ragweed plant response rating [5]: 0 | pest or weed control at 125 g/ha ([6]; Lolium multiflorum, pre-emergence, 240 h, 125 g ai/ha, Preemergence, visual injury rating after approximately 10 d, read-out: Ryegrass, Italian plant response rating (0 to 100 scale, 0 is no effect, 100 is complete control)): 0% | pest or weed control at 500 g/ha ([6]; Lolium multiflorum, pre-emergence, 240 h, 500 g ai/ha, preemergence, visual injury rating about 10 d after treatment, 0 to 100 scale (0 no effect, 100 complete control), read-out: Ryegrass, Italian plant response rating): 40% | pest or weed control at 125 g/ha ([7]; Galium, post-emergence, 240 h, read-out: Plant response rating, Galium): 40% | Plant response rating, Kochia [8]: 0 | pest or weed control at 125 g/ha ([9]; Echinochloa crus-galli, post-emergence, 240 h, read-out: Plant response rating, Barnyardgrass): 80% | Plant response rating, Blackgrass [10]: 0 | Plant response rating, Corn [11]: 0 | pest or weed control at 125 g/ha ([12]; Setaria faberi, post-emergence, 240 h, read-out: Plant response rating, Foxtail, Giant): 60% | pest or weed control at 125 g/ha ([13]; Amaranthus retroflexus, post-emergence, 240 h, read-out: Plant response rating, Pigweed): 0% | pest or weed control at 125 g/ha ([14]; Ambrosia artemisiifolia, post-emergence, 240 h, read-out: Plant response rating, Ragweed): 0% | Plant response rating, Ryegrass, Italian [15]: 0 | Plant response rating, Wheat [16]: 0 | pest or weed control at 250 g/ha ([17]; Echinochloa crus-galli, read-out: Barnyardgrass plant response rating): 90% | Ducksalad plant response rating [18]: 75 | pest or weed control at 250 g/ha ([19]; Oryza sativa, read-out: Rice plant response rating): 35% | pest or weed control at 250 g/ha ([20]; Cyperus difformis, read-out: Sedge, Umbrella plant response rating): 0%

Cc1c(F)cccc1NC(=O)[C@H]1C(=O)NC[C@@H]1c1ccc2c(c1)OCO2 (stereo in doubt) [Compound 989]
Kochia plant response rating (0 to 100 scale, 0 is no effect, 100 is complete control) [1]: 0 | Kochia plant response rating [1, 21]: 90 | Barnyardgrass plant response rating (0 to 100 scale, 0 is no effect, 100 is complete control) [2]: 70 | Barnyardgrass plant response rating [2, 21]: 90 | Foxtail, Giant plant response rating (0 to 100 scale, 0 is no effect, 100 is complete control) [3, 22]: 70 | Foxtail, Giant plant response rating [3, 21]: 90 | Pigweed plant response rating (0 to 100 scale, 0 is no effect, 100 is complete control) [4]: 0 | Pigweed plant response rating [4, 21]: 0 | Ragweed plant response rating (0 to 100 scale, 0 is no effect, 100 is complete control) [5]: 0 | Ragweed plant response rating [5]: 40 | Ryegrass, Italian plant response rating (0 to 100 scale, 0 is no effect, 100 is complete control) [6, 22]: 0 | Ryegrass, Italian plant response rating [6, 21]: 0 | Plant response rating, Galium [7]: 20 | Plant response rating, Kochia [8]: 0 | Plant response rating, Barnyardgrass [9]: 80 | Plant response rating, Blackgrass [10]: 0 | Plant response rating, Corn [11]: 0 | Plant response rating, Foxtail, Giant [12]: 50 | Plant response rating, Pigweed [13]: 0 | Plant response rating, Ragweed [14]: 0 | Plant response rating, Ryegrass, Italian [15]: 0 | Plant response rating, Wheat [16]: 0 | Barnyardgrass plant response rating [17]: 15 | Ducksalad plant response rating [18]: 100 | Rice plant response rating [19]: 0 | Sedge, Umbrella plant response rating [20]: 0
